As a reminder, the EC50 is the concentration that produces a half-maximal response.

Activity calls are given as the source filed them. No cut-off for these calls is given here.

In assay [1] the test system is Cystic fibrosis transmembrane conductance regulator (Homo sapiens), P13569 [G551D]. The assay is described as follows: Potentiation of CFTR G551D mutant (unknown origin) expressed in FRT cells assessed as increase in chloride current at 10 uM in presence of VX-770 by voltage clamp electrophysiology recording relative to VX-770 alone. The conditions noted are these: filed as activator. The format is cell-based.

Assay [2] deals with Cystic fibrosis transmembrane conductance regulator (Homo sapiens, UniProt P13569, G551D). The assay can be described thus: Potentiation of CFTR G551D mutant (unknown origin) expressed in FRT cells assessed as increase in chloride current in presence of VX-770 by voltage clamp electrophysiology recording. The format is cell-based.
Assay [3] has as its system Cystic fibrosis transmembrane conductance regulator (Homo sapiens), P13569 [N1303K]. The assay can be described thus: Corrector activity at HRP tagged CFTR N1303K mutant (unknown origin) expressed in FRT cells assessed as stabilization of CFTR mutant in plasma membrane by measuring enhanced HRP signal at 5 uM incubated for 24 hrs by ELISA. The conditions noted are these: filed as activator. A general note: In an ELISA, binding on a coated surface is turned into a signal by an enzyme label.

Sequence of Cystic fibrosis transmembrane conductance regulator (Homo sapiens), P13569 [G551D] (P13569 whole entry G551D): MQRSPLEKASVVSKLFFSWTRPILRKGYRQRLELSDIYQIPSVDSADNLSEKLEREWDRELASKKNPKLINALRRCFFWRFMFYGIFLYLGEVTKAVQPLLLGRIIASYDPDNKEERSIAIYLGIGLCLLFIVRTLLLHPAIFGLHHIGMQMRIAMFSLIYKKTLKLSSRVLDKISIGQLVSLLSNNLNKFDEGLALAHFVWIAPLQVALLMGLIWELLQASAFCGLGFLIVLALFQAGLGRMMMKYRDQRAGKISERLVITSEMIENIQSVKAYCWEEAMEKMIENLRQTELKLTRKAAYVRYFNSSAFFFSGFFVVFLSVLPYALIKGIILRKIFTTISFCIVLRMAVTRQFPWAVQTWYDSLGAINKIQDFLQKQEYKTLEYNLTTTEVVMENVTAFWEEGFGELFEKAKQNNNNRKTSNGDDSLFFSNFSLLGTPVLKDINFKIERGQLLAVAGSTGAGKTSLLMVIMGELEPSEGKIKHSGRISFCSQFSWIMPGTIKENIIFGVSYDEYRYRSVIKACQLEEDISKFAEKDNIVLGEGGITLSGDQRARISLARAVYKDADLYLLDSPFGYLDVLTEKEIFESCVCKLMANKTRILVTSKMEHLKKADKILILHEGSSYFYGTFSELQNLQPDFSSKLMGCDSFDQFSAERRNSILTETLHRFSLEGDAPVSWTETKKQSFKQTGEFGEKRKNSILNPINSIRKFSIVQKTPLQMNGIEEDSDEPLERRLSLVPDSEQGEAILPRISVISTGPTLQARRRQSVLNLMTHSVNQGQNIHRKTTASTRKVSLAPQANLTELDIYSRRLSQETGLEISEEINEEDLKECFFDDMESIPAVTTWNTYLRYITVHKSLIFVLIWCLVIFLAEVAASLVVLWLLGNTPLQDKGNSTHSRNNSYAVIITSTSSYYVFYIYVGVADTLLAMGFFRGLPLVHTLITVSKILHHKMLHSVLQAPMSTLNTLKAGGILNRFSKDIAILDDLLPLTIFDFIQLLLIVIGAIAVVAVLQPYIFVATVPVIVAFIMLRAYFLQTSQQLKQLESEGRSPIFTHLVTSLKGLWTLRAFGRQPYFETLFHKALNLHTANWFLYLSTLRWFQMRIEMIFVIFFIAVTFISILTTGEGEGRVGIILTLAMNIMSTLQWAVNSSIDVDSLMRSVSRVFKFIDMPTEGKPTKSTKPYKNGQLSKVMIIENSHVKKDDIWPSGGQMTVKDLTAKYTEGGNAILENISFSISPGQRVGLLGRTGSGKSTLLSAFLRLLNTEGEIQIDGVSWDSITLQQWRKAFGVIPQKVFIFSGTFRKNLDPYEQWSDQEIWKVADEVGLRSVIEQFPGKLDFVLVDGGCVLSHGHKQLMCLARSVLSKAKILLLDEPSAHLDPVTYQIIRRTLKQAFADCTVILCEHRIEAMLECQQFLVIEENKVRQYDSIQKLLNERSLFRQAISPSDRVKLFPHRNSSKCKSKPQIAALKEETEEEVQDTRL
Sequence of Cystic fibrosis transmembrane conductance regulator (Homo sapiens), P13569 [N1303K] (P13569 whole entry N1303K): as the sequence (P13569 whole entry G551D) above, with D551G, N1303K counted along it
Sequence of Cystic fibrosis transmembrane conductance regulator (P13569 whole entry G551D): as the sequence (P13569 whole entry G551D) above

On to `COc1ccc(OC)c(-c2nnc3n2N=C(C(C)C)CS3)c1`, for which the Activity in assay [1] is 166%.
The same measure, in the same setting: the value for `CC(C)(C)C1=Nn2c(nnc2-c2cc(Cl)ccc2Br)SC1` was 267%.
As for `CCc1nnc2n1N=C(c1ccc(OC)c(OC)c1)CS2`, in assay [1], the Activity stood at 204%. For the same compound, the EC50 in assay [2] was ~940 nM. The outcome in assay [3] was Active.
`CCC1=Nn2c(nnc2-c2ccc(OC)c(OC)c2)SC1`: the Activity in assay [1] came out at 107%.
On the same count and under the same terms, the value for `CCC1=Nn2c(nnc2-c2cccc(Cl)c2)SC1` was 162%; that for `CCc1nnc2n1N=C(c1ccc(Cl)c(Cl)c1)CS2` was 103%; that for `CC(C)(C)C1=Nn2c(nnc2-c2ccc(Cl)cc2Cl)SC1` was 379%.
Still for that read-out and setting: under `CC1=Nn2c(nnc2-c2ccc(Cl)cc2Cl)SC1` stands 137%.
On the same count and under the same terms, under `FC(F)(F)C1=Nn2c(nnc2-c2ccc(Cl)cc2Cl)SC1` stands 159%.
As for `FC(F)(F)C1=Nn2c(nnc2-c2cc(Cl)ccc2Br)SC1`, the Activity in assay [1] was 171%.
On to `CCC1=Nn2c(nnc2-c2ccc(Cl)cc2)SC1`, for which the Activity in assay [1] is 149%.
Same read-out and setting: under `CC(C)C1=Nn2c(nnc2-c2ccc(Cl)cc2Cl)SC1` stands 204%; under `CCC1=Nn2c(nnc2-c2cccc(Cl)c2Cl)SC1`, 129%.
Still for that read-out and setting: the value for `CC1=Nn2c(nnc2-c2cc(Cl)ccc2Br)SC1` was 155%; that for `COc1cc(Br)c(-c2nnc3n2N=C(C(C)C)CS3)cc1OC` was 106%; that for `COc1ccc(C2=Nn3c(nnc3-c3ccc(Cl)cc3Cl)SC2)cc1` was 142%.
Same read-out and setting: under `CCC1=Nn2c(nnc2-c2ccc(Cl)c(Cl)c2)SC1` stands 187%.
For the compound `COc1ccc(Br)c(-c2nnc3n2N=C(C(C)C)CS3)c1`, in assay [1], the Activity turned out to be 232%.
The same measure, in the same setting: under `CC(C)C1=Nn2c(nnc2-c2cc(Cl)ccc2Br)SC1` stands 267%.
On the same count and under the same terms, under `CCC1=Nn2c(nnc2-c2cc(Cl)ccc2Br)SC1` stands 118%; under `CCC1=Nn2c(nnc2-c2ccc(Cl)cc2Cl)SC1`, 257%.
In the case of `CC(C)C1=Nn2c(nnc2-c2cc(Cl)ccc2Cl)SC1`, the Activity in assay [1] came out at 196%.
Take `COc1ccc(F)c(-c2nnc3n2N=C(C(C)C)CS3)c1`: the Activity in assay [1] came to 237%.
As for `CCC1=Nn2c(nnc2-c2cc(OC)c(OC)c(OC)c2)SC1`, in assay [1], the Activity was determined as 119%.
